Reference: patent US8105836B2, “Chemical inhibitors of mismatch repair” (priority 2001, dated 2012)
Entries after “also recorded” stand apart in the source; their conditions may differ.

Columns and labels:
MMR defective cell lines = conditions: mammalian cells; Chen et al. 2000; cited from earlier work
[1] = tested on: MMR activity (ATPase-dependent); conditions: in vitro assays; Galio 1999, Allen 1997, Bjornson 2000; cited from earlier work
[2] = tested on: mismatch repair (MMR) in H36 pCAR-OF cells; assay type: cell-based, murine; conditions: for generation of β-galactosidase positive cells / MI and shifting of the polynucleotide tract in the pCAR-OF reporter: H36 pCAR-OF cells
Arabidopsis thaliana [3] = assay: New phenotypes in offspring of chemically exposed Arabidopsis plants; assay type: in vivo; conditions: for offspring with small light green appearance (altered phenotype): offspring grown in standard soil conditions for 17 days, FIG. 6; for phenotypically distinct plants among offspring at day 10: offspring of plants grown from seeds on 2 mM DMA or 250 μM EMS for 10 days
Protocol: Next, 50 seeds were plated in two 150 mm dishes containing 2 mM DMA, 250 μM EMS or no drug. Seeds were grown for 10 days and then 10 plants from each plate were transferred to soil. All plants appeared to be similar in color and height. Plants were grown at room temperature with daily cycles of 18 hr light and 6 hr dark. After 45 days seeds are harvested from siliques and stored in a desiccator at 4° C. for 72 hours. Seeds are then sterilized and 100 seeds from each plant is sown directly into water-saturated soil and grown at room temperature with daily cycles of 18 hr light and 6 hr dark. […] These 7 altered plants were light green in color and appeared to grow slower. […] DMA-exposed plants produced offspring that were yellow in appearance in contrast to dark green, which is always found in wild-type plants. In addition, the yellow plants were also shorter. After 30 days, most wild-type plants produced flowers and siliques, while the 7 mutants just began flowering. After 45 days, control plants were harvested while mutant plants were harvested 10 to 15 days later.

[4] = tested on: Pichia yeast containing GUS-OF reporter; assay: Pichia yeast pGUS-OF MMR-sensitive reporter assay (X-glu plates); assay type: cell-based; conditions: GUS-OF Pichia incubated with 300 μM chemical for 48 hours
Protocol: Briefly, the GUS-OF and GUS-IF gene, which contains a polyA repeat at the N-terminus of the protein was subcloned from the pCR-IF-GUS and pCR-OF-GUS plasmids into the EcoRI site of the pGP vector, which is a consitutively expressed yeast vector containing a zeocin resistance gene as selectable marker. pGP-GUS-IF and pGP-GUS-OF vectors were electroporated into competent Pichia cells using standard methods known by those skilled in the art. Cells were plated on YPD agar (10 g/L yeast extract; 20 g/L peptone; 2% glucose; 1.5% bactoagar) plates containing 100 μg/ml zeocin. Recombinant yeast are then analyzed for GUS expression/function by replica plating on YPD agar plates containing 100 μg/ml zeocin plus 1 mg/ml X-glu (5-bromo-4-chloro-3-indoyl-beta-D-glucuronide sodium salt) and grown at 30° C. for 16 hours. […] None of the yeast containing the GUS-OF turned blue in the presence of the X-glu substrate under normal growth conditions.
After incubation, yeast were plated on YPD-ZEO-X-GLU plates and grown at 30° C. for 16 hours.

Arabidopsis thaliana [5] = assay: Toxicity curve on Arabidopsis seeds on MS phytagar plates (root and shoot formation); assay type: in vivo; conditions: for Dead: non-germinated seeds
Protocol: Briefly, AT seeds were sterilized with straight commercial bleach and 100 seeds were plated in 100 mm Murashige and Skoog (MS) phytagar (Life Technology) plates with increasing amounts of DMA (ranging from 100 μm to 50 mM). A similar amount of seeds were plated on MS phytagar only or in MS phytagar with increasing amounts of EMS (1001M to 50 mM), a mutagen commonly used to mutate AT seeds (McCallum, C. M. et al. (2000) Nat. Biotechnol. 18:455-457). Plates were grown in a temperature-controlled, fluorescent-lighted humidifier (Percival Growth Chamber) for 10 days. After 10 days, seeds were counted to determine toxicity levels for each compound. […] Plantlets that were identical to untreated seeds were scored healthy. Seeds with stunted root or shoot formation were scored intermediate (inter). Non-germinated seeds were scored dead.

[6] = tested on: human HEK293 cells (BAT26 microsatellite marker); assay: BAT26 microsatellite instability of endogenous loci in 293 cells (PCR, cloning, sequencing); assay type: cell-based
Protocol: (§1) Briefly, 10^5 cells were grown in control medium or 250 μM DMA, a concentration that is found to be non-toxic, for 14 to 17 days. Cells are then harvested and genomic DNA isolated using the salting out method (Nicolaides, N. C. et al. (1991) Mol. Cell. Biol. 11:6166-6176.).
Various amounts of test DNAs from HCT116 (a human colon epithelial cell line) and 293 were first used to determine the sensitivity of our microsatellite test. The BAT26 alleles are known to be heterogeneous between these two cell lines and the products migrate at different molecular weights (Nicolaides personal observation). DNAs were diluted by limiting dilution to determine the level of sensitivity of the assay. DNAs were PCR amplified using the BAT26F: 5′-[…]-3′ (SEQ ID NO:43) and the BAT26R: 5′-[…]-3′ (SEQ ID NO:44) primers in buffers as described (Nicolaides, N. C. et al. (1995) Genomics 30:195-206). Briefly 1 pg to 100 ngs of DNA were amplified using the following conditions: 94° C. for 30 sec, 58° C. for 30 sec, 72° C. for 30 sec for 30 cycles. […]
To measure for microsatellite stability in 293 cells grown with or without DMA, 0.1 ngs of DNA from DMA-treated or control 293 cells were amplified using the reaction conditions above. […] Fifty bacterial colonies were analyzed for BAT26 structure by directly adding an aliquot of live bacteria to the PCR mix. […]

[7] = at high concentrations; Myers et al. 1988; cited from earlier work
human HEK293 cells = assay: Toxicity of DMA to 293 cells in culture; assay type: cell-based; conditions: 14 to 17 days
Protocol: as §1

[8] = Arabidopsis thaliana, in vivo, 10 days, 2.5 mM
[9] = Arabidopsis thaliana, in vivo, 10 days, 5 mM
[10] = Arabidopsis thaliana, in vivo, 10 days, 10 mM
[11] = Arabidopsis thaliana, in vivo, 10 days, 12.5 mM
[12] = Arabidopsis thaliana, in vivo, 10 days, 25 mM
[13] = Arabidopsis thaliana, in vivo, 10 days, 50 mM

For `COc1ccc2nc3cc(Cl)ccc3c(NCCCNCCCl)c2c1` [ICR191], the “mutation induction in MMR defective cell lines” value (MMR defective cell lines) is listed as “produce enhanced mutation rates in already MMR defective cell lines”.
In the case of `Nc1ncnc2c1ncn2[C@@H]1O[C@H](COP(=O)(O)OP(=O)(O)OP(O)(O)=S)[C@@H](O)[C@H]1O` [ATP[gamma]S], the “effect on MMR activity in vitro” value [1] is listed as “block the MMR activity”.
In the case of `CCOS(C)(=O)=O` [EMS, ethyl methanesulfonate], the “generation of β-galactosidase positive cells / MI and shifting of the polynucleotide tract in the pCAR-OF reporter” value [2] is reported as “did not result in MI and/or the shifting of the polynulceotide tract in the pCAR-OF reporter”, the “offspring with small light green appearance (altered phenotype)” value (Arabidopsis thaliana [3]) is reported as “No plants with altered phenotypes were observed” and the “phenotypically distinct plants among offspring at day 10” value (Arabidopsis thaliana [3]) is reported as “no phenotypic difference was observed”. The “blue subclones (functional GUS) on YPD-ZEO-X-GLU plates” value [4] was “none are seen”, the “concentration at which toxicity occurs” value (Arabidopsis thaliana [5]; Arabidopsis thaliana, in vivo, 10 days) was 250 µM and the Inter (Arabidopsis thaliana [5]; Arabidopsis thaliana, in vivo, 10 days, 0.1 mM) was 0 per 100 cells. The Healthy (Arabidopsis thaliana [5]; [8]) was 0 per 100 cells, the Inter (Arabidopsis thaliana [5]; [8]) was 0 per 100 cells and the Healthy (Arabidopsis thaliana [5]; [9]) was 0 per 100 cells. It also gave an Inter (Arabidopsis thaliana [5]; [9]) of 0 per 100 cells, a Healthy (Arabidopsis thaliana [5]; [10]) of 0 per 100 cells and an Inter (Arabidopsis thaliana [5]; [10]) of 0 per 100 cells. The Healthy (Arabidopsis thaliana [5]; [11]) was 0 per 100 cells, the Inter (Arabidopsis thaliana [5]; [11]) was 0 per 100 cells and the Healthy (Arabidopsis thaliana [5]; [12]) was 0 per 100 cells. It also gave an Inter (Arabidopsis thaliana [5]; [12]) of 0 per 100 cells, a Healthy (Arabidopsis thaliana [5]; [13]) of 0 per 100 cells and an Inter (Arabidopsis thaliana [5]; [13]) of 0 per 100 cells.
With `Cc1c2ccccc2c(C)c2ccccc12` [DMA, 9,10-dimethylanthracene] the “generation of β-galactosidase positive cells / MI and shifting of the polynucleotide tract in the pCAR-OF reporter” value [2] was “produces b-gal positive H36 pCAR-OF cells”, the “cells positive for b-gal” value ([2]; H36 pCAR-OF cells grown in the presence of DMA, FIG. 3) was “Approximately 3%” and the “offspring with small light green appearance (altered phenotype)” value (Arabidopsis thaliana [3]) was “Six”. For the same compound, the “phenotypically distinct plants among offspring at day 10” value (Arabidopsis thaliana [3]) was 7 out of 118, the “blue subclones (functional GUS) on YPD-ZEO-X-GLU plates” value [4] was “a subset of yeast expressing GUS-OF contain blue subclones” and the “BAT26 polyA repeat alleles by sequence analysis of clones” value ([6]; 293 cells treated with DMA, control clone homozygous for 26 nt polyA repeat) was “multiple alleles ranging from the wild-type with 26 polyA repeat to shorter alleles (24 polyA repeat) and larger alleles (28 polyA repeat)”. For the same compound, the “altered BAT26 alleles (microsatellite instability)” value ([6]; 293 cells, 250 μM DMA, 14-17 days, PCR and gel electrophoresis) was “showed the presence of an altered allele; also recorded: presence of a new allele in cells treated with DMA”, the “concentration at which toxicity occurs” value (Arabidopsis thaliana [5]; Arabidopsis seeds, continuous culture, from Table 2) was 10000 µM and the Dead (Arabidopsis thaliana [5]; concentration 0.1, 10 days) was 0 per 100 seeds. The Inter (Arabidopsis thaliana [5]; concentration 0.1, 10 days, stunted root or shoot formation scored intermediate) was 0 per 100 seeds, the Dead (Arabidopsis thaliana [5]; concentration 0.5, 10 days) was 0 per 100 seeds and the Inter (Arabidopsis thaliana [5]; concentration 0.5, 10 days, stunted root or shoot formation) was 0 per 100 seeds. For the same compound, the Dead (Arabidopsis thaliana [5]; concentration 1.0, 10 days) was 0 per 100 seeds, the Inter (Arabidopsis thaliana [5]; concentration 1.0, 10 days, stunted root or shoot formation) was 0 per 100 seeds and the Dead (Arabidopsis thaliana [5]; concentration 2.5, 10 days) was 0 per 100 seeds. It also gave a Dead (Arabidopsis thaliana [5]; concentration 5.0, 10 days) of 0 per 100 seeds, a Dead (Arabidopsis thaliana [5]; concentration 10, 10 days) of 0 per 100 seeds and a Healthy (Arabidopsis thaliana [5]; concentration 12.5, 10 days on MS phytagar) of 0 per 100 seeds. It also gave a Dead (Arabidopsis thaliana [5]; concentration 12.5, 10 days) of 0 per 100 seeds, a Healthy (Arabidopsis thaliana [5]; concentration 25, 10 days on MS phytagar) of 0 per 100 seeds and a Dead (Arabidopsis thaliana [5]; concentration 25, 10 days) of 0 per 100 seeds. For the same compound, the Healthy (Arabidopsis thaliana [5]; concentration 50, 10 days on MS phytagar) was 0 per 100 seeds, the Inter (Arabidopsis thaliana [5]; concentration 50, 10 days, stunted root or shoot formation) was 0 per 100 seeds and the mutagenic activity [7] was “acts as a potent weak mutagen”. For the same compound, the “concentration found to be non-toxic” value (human HEK293 cells) was 250 µM.
For `Nc1ncnc2c1ncn2[C@@H]1O[C@H](COP(=O)(O)OP(=O)(O)NP(=O)(O)O)[C@@H](O)[C@H]1O` [AMP-PNP], the “effect on MMR activity in vitro” value [1] is listed as “block the MMR activity”.
